Data set [1] in a line: High-content analysis of ΔK280 tauRD-DsRed fluorescence and cell number (folding reporter). The settings on record: human; induced ΔK280 tauRD-DsRed SH-SY5Y; compounds 2.5–10 µM; read-out: IC50 cytotoxicity based on the cell number analyzed. Format: cell-based, human. As for the experimental part: On day 1, ∆K280 tauRD-DsRed SH-SY5Y cells were seeded in a 96-well plate (3 × 10^4/well), with retinoic acid (10 µM; Sigma-Aldrich) added to induce neuronal differentiation. […] […] For ROS measurement, dichloro-dihydro-fluorescein diacetate (DCFH-DA, 10 µM; Invitrogen, Carlsbad, CA, USA) was added to the cells on day 8 and incubated at 37 °C for 30 min.

Data set [2] addresses T1, TRKB-ECD-His (extracellular domain of TRKB) (Homo sapiens, UniProt Q16620).
T1 construct: extracellular domain of TRKB (TRKB-ECD) (residues 32–429, XP_016870240); Saccharomyces cerevisiae α-factor secretion signal (N, cleaved yes); made in house; host or cells: Pichia pastoris
Briefly: Tryptophan fluorescence quenching assay. As to conditions: TRKB-ECD-His 50 nM in PBS; excitation 295 nm, emission 330 nm; compounds 0–1000 nM; read-out: TRKB-ECD binding affinity (KD). An excerpt: The cDNA fragment containing the full-length extracellular domain of TRKB (TRKB-ECD) (residues 32–429, XP_016870240) was amplified from pDONR223-NTRK2 plasmid (Addgene, Watertown, MA, USA) using forward primer 5′-ctcgagaaaagagaggctgaagctTGTCCCACGTCCTGAAATG (XhoI site and Kex2 cleavage of the signal sequence in lowercase letters) and reverse primer 5′-gtcgac[…] (SalI site in lowercase letters). After cloning and sequencing, the TRKB-ECD fragment was excised with XhoI and SalI and subcloned into Pichia expression vector pGAPZα A (Invitrogen). The AvrII-linearized plasmid was then transformed into Pichia pastoris, and stable transformants selected and cultured at 30 °C for 4 days for constitutive expression of recombinant His-tagged TRKB-ECD. The secreted TRKB-ECD-His in cultured medium was purified using Ni-NTA His•Bind resins (Novagen, Madison, WI 53719, USA) according to the supplier’s instructions. Protein purity was examined by Coomassie blue staining of SDS-polyacrylamide gel as well as immunoblotting using anti-His (1:2000; Acris, Herford, Germany) and anti-TRKB (1:1000; Cell Signaling) antibodies.
The interaction between TRKB-ECD-His and LM-031, LMDS-1 or LMDS-2 was determined by tryptophan fluorescence titration. 7,8-DHF (Sigma-Aldrich) was included as a positive control. Tryptophan fluorescence spectra of TRKB-ECD-His (50 nM in PBS) were obtained before and after titration with different concentrations of test compounds (0–1000 nM). The fluorescent quenching was conducted in a cuvette with a 1 cm path length cell by an F-7000 fluorescence spectrophotometer (Hitachi, Tokyo, Japan) at room temperature. The intrinsic fluorescence spectra of TRKB were recorded with excitation wavelength set at 295 nm and emission wavelength in the range 300–400 nm. The dissociation constant (KD) of 7,8-DHF, LM-031, LMDS-1 and LMDS-2 to TRKB was determined by fitting the normalized fluorescence intensity at 330 nm under different concentrations of test compounds using the equation derived from Liu et al.:KD = [P]T (f − 1) + [D]T (1/f − 1), where f is the fractional change, and [P]Tand [D]Tare the total concentration of TRKB-ECD-His protein and test compound, respectively.

In another data set the test system is p-TRKB (Y516 and Y817). Briefly: Immunoblot of p-TRKB (Y516 and Y817). Format: cell-based, human. As to conditions: for p-TRKB Y516 level / p-TRKB Y817 level: 10 µM; for p-TRKB Y516 level: induced untreated 67%; for p-TRKB Y817 level: induced untreated 74%; for p-TRKB (Y516/Y817) level: BDNF 100 ng/mL, LMDS-1/2 10 μM, induced untreated 77–83%, Figure 6B. The protocol:
(§1) ∆K280 tauRD-DsRed SH-SY5Y cells in 6-well plates (5 × 10^5/well) were treated with retinoic acid (10 µM) on day 1, followed by LMDS-1 or -2 (10 µM) and doxycycline (2 µg/mL) addition on day 2 as described. ERK inhibitor U0126 or PI3K inhibitor wortmannin (10 μM) (LC Laboratories, Woburn, MA, USA) was added on day 6. On day 8, the cells were collected for BDNF, BCL2, BAX and total/phosphorylated TRKB, ERK, AKT, CREB protein analyses as described.
(§2) ∆K280 tauRD-DsRed SH-SY5Y cells were lysed in buffer containing 50 mM Tris-HCl (pH 8.0), 150 mM NaCl, 1 mM EDTA (pH 8.0), 1 mM EGTA (pH 8.0), 0.1% SDS, 0.5% sodium deoxycholate, 1% Triton X-100 and protease (Sigma-Aldrich)/phosphatase (Roche, Basel, Switzerland) inhibitor cocktails. After two sonications with an interval of 30 min on ice, cell lysates were collected by centrifugation at 14,000× g for 30 min at 4 °C. Protein concentrations were determined using a Bradford assay (Bio-Rad, Hercules, CA, USA). Protein samples (25 µg) were separated by 10–12% SDS-PAGE and transferred to polyvinylidene difluoride (PVDF) membranes (Sigma-Aldrich). After blocking for 2 h with 10% skimmed milk or 5% BSA in 0.1% Tween 20 in Tris-buffered saline (TBST), the membrane was incubated with primary antibody against BDNF (1:500; Santa Cruz, Santa Cruz, CA, USA), BCL2 (1:500; BioVision), BAX (1:500; BioVision), TRKB (1:1000; Cell Signaling, Danvers, MA, USA), p-TRKB (Y516) (1:1000; Cell Signaling), p-TRKB (Y817) (1:1000; Millipore, Billerica, MA, USA), ERK (1:1000; Cell Signaling), p-ERK (T202/Y204) (1:500; Cell Signaling), AKT (1:1000; Cell Signaling), p-AKT (S473) (1:1000; Cell Signaling), CREB (1:1000; Santa Cruz), p-CREB (S133) (1:1000; Millipore), JNK (1:1000; Cell Signaling), p-JNK (T183/Y185) (1:1000; Cell Signaling) or loading control glyceraldehyde-3-phosphate dehydrogenase (GAPDH) (1:1000; MDBio, Taipei, Taiwan). After three washes with TBST, the immune complexes were detected using horseradish peroxidase-conjugated goat anti-mouse or goat anti-rabbit secondary IgG antibody (1:5000, GeneTex, Irvine, CA, USA) and enhanced chemiluminescence substrates luminol and peroxide (Millipore). The primary and secondary antibodies used were diluted with TBST. The chemiluminescent detection was performed on ImageQuant™ LAS 4000mini (GE Healthcare).
(Immunoblotting shows a protein as a band on a membrane.)

The subject of another data set is p-CREB (S133). The data set is described as follows: Immunoblot of p-CREB (S133). In kind it is cell-based, human. As for the experimental part:
as §1, §2

Another data set concerns CREB. Briefly: Immunoblot of CREB. The settings on record: 10 µM; induced untreated 83%. Format: cell-based, human. As for the experimental part:
as §1
(§3) ∆K280 tauRD-DsRed SH-SY5Y cells were lysed in buffer containing 50 mM Tris-HCl (pH 8.0), 150 mM NaCl, 1 mM EDTA (pH 8.0), 1 mM EGTA (pH 8.0), 0.1% SDS, 0.5% sodium deoxycholate, 1% Triton X-100 and protease (Sigma-Aldrich)/phosphatase (Roche, Basel, Switzerland) inhibitor cocktails. After two sonications with an interval of 30 min on ice, cell lysates were collected by centrifugation at 14,000× g for 30 min at 4 °C. Protein concentrations were determined using a Bradford assay (Bio-Rad, Hercules, CA, USA). Protein samples (25 µg) were separated by 10–12% SDS-PAGE and transferred to polyvinylidene difluoride (PVDF) membranes (Sigma-Aldrich). […] After three washes with TBST, the immune complexes were detected using horseradish peroxidase-conjugated goat anti-mouse or goat anti-rabbit secondary IgG antibody (1:5000, GeneTex, Irvine, CA, USA) and enhanced chemiluminescence substrates luminol and peroxide (Millipore). […]

The test system of the next data set is m-BDNF (13 kDa). Briefly: Immunoblot of m-BDNF. The settings on record: 10 µM; induced untreated 69%. In kind it is cell-based, human. As for the experimental part:
as §1, §3

In a further data set the test system is BCL2. Briefly: Immunoblot of BCL2. Format: cell-based, human. The settings on record: 10 µM; induced untreated 73%. The protocol:
as §1, §3

The mark [3] stands for this setting: 10 µM, induced untreated 78%, Figure 5C.
The mark [4] stands for this setting: BDNF 100 ng/mL, LMDS-1/2 10 μM, induced untreated 72%, Figure 6B.

The values that follow come from PMC9654711, “Neuroprotective Action of Coumarin Derivatives through Activation of TRKB-CREB-BDNF Pathway and Reduction of Caspase Activity in Neuronal Cells Expressing Pro-Aggregated Tau Protein” (International Journal of Molecular Sciences, 2022).

T1 sequence (Q16620 32-429): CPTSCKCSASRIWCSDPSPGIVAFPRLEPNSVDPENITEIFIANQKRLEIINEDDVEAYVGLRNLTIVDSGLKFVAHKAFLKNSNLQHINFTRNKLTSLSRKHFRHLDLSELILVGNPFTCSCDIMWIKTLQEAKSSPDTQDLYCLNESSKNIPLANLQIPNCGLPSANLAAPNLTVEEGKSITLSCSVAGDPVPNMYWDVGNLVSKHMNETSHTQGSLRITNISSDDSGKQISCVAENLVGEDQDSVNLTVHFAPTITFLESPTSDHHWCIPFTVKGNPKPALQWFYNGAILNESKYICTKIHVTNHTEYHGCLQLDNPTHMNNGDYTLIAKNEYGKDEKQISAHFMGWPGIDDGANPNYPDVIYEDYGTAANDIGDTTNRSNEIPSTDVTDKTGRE

As to `O=C(c1ccccc1)c1cc2c(O)cccc2oc1=O` [LM-031, 3-benzoyl-5-hydroxychromen-2-one], the IC50 (as a rule, the point on the concentration scale where inhibition reaches its midpoint) at 6 days in data set [1] stood at 43 µM. In addition, the Kd (in general, the constant that tells how readily two partners part at equilibrium) in data set [2] was found to be 0.0127 ± 0.0028 µM.

On to `CCOc1ccc2cc(C(=O)c3ccccc3)c(=O)oc2c1` [LMDS-1], for which the IC50 at 6 days in data set [1] was 25 µM. In addition, in the data set on p-TRKB (Y516 and Y817), the “p-TRKB Y516 level” value is 92–93%, the “p-TRKB Y817 level” value was 103–105% and the “p-TRKB (Y516/Y817) level” value is 96–104%. For the same compound, in the data set on p-CREB (S133) (setting [3]), the p-CREB level is 105–108%. In the data set on p-CREB (S133) (setting [4]), the p-CREB level is 90–95%. Moreover, the CREB level with CREB is 98–101%. Also, the m-BDNF level in the data set with m-BDNF (13 kDa) was 97–102%. For the same compound, the BCL2 level in the data set on BCL2 is given as 111–114%. Also, in data set [2], the Kd was 0.008 ± 0.017 µM.

As to `O=C(c1ccccc1)c1cc2ccc(O)cc2oc1=O` [LMDS-2], in data set [1], the IC50 at 6 days amounted to 24 µM. For the same compound, in the data set on p-TRKB (Y516 and Y817), the “p-TRKB Y516 level” value is recorded as 92–93%, the “p-TRKB Y817 level” value was 103–105% and the “p-TRKB (Y516/Y817) level” value is reported as 96–104%. The p-CREB level in the data set on p-CREB (S133) (setting [3]) is on record as 105–108%. The p-CREB level with p-CREB (S133) (setting [4]) was 90–95%. Also, the CREB level in the data set with CREB is reported as 98–101%. Moreover, the m-BDNF level in the data set on m-BDNF (13 kDa) is given as 97–102%. In addition, the BCL2 level in the data set on BCL2 is listed as 111–114%. In addition, the Kd in data set [2] stood at 0.0065 ± 0.0066 µM.
